Test: molar heat capacity at constant pressure
Settings: 101.33 kPa

O=P([O-])([O-])[O-].[Cs+].[Ni+2] [cesium nickel monophosphate]
Settings	molar heat capacity at constant pressure [J/K/mol]
344.8 K, Crystal 2, DSC	162.96
345.8 K, Crystal 2, DSC	163.79
346.8 K, Crystal 2, DSC	163.79
347.8 K, Crystal 2, DSC	163.79
348.8 K, Crystal 2, DSC	164.63
349.8 K, Crystal 2, DSC	165.46
350 K, Crystal 2, Small (less than 1 g) adiabatic calorimetry	165.04
350.8 K, Crystal 2, DSC	165.46
351.8 K, Crystal 2, DSC	165.46
352.8 K, Crystal 2, DSC	166.29
353.8 K, Crystal 2, DSC	167.12
354.8 K, Crystal 2, DSC	167.12
355.8 K, Crystal 2, DSC	167.12
356.8 K, Crystal 2, DSC	167.95
357.8 K, Crystal 2, DSC	167.95
358.8 K, Crystal 2, DSC	168.78
359.8 K, Crystal 2, DSC	168.78
360 K, Crystal 2, Small (less than 1 g) adiabatic calorimetry	169.2
360.8 K, Crystal 2, DSC	169.61
361.8 K, Crystal 2, DSC	170.45
362.8 K, Crystal 2, DSC	170.45
363.8 K, Crystal 2, DSC	170.45
364.8 K, Crystal 2, DSC	171.28
365.8 K, Crystal 2, DSC	172.11
366.8 K, Crystal 2, DSC	172.11
367.8 K, Crystal 2, DSC	172.94
368.8 K, Crystal 2, DSC	172.94
369.8 K, Crystal 2, DSC	172.94
370 K, Crystal 2, Small (less than 1 g) adiabatic calorimetry	173.36
370.8 K, Crystal 2, DSC	173.77
371.8 K, Crystal 2, DSC	173.77
372.8 K, Crystal 2, DSC	174.6
373.8 K, Crystal 2, DSC	175.44
374.8 K, Crystal 2, DSC	177.1
376.3 K, Crystal 2, DSC	180.42
380 K, Crystal 2, Small (less than 1 g) adiabatic calorimetry	176.27
382.8 K, Crystal 1, DSC	178.26
382.8 K, Crystal 2, Small (less than 1 g) adiabatic calorimetry	176.68
387.8 K, Crystal 1, DSC	183.75
388.8 K, Crystal 1, DSC	179.59
389.8 K, Crystal 1, DSC	177.93
390 K, Crystal 1, DSC	177.1
390.8 K, Crystal 1, DSC	177.1
391.8 K, Crystal 1, DSC	177.1
392.8 K, Crystal 1, DSC	177.1
393.8 K, Crystal 1, DSC	177.1
394.8 K, Crystal 1, DSC	176.27
395.8 K, Crystal 1, DSC	177.1
396.8 K, Crystal 1, DSC	176.27
397.8 K, Crystal 1, DSC	176.27
398.8 K, Crystal 1, DSC	176.27
399.8 K, Crystal 1, DSC	176.27
400 K, Crystal 1, DSC	175.85
400.8 K, Crystal 1, DSC	175.44
402.8 K, Crystal 1, DSC	175.44
404.8 K, Crystal 1, DSC	174.6
407.1 K, Crystal 1, DSC	174.6
408.8 K, Crystal 1, DSC	174.6
410 K, Crystal 1, DSC	175.02
410.8 K, Crystal 1, DSC	174.6
412.8 K, Crystal 1, DSC	174.6
414.8 K, Crystal 1, DSC	174.6
416.8 K, Crystal 1, DSC	174.6
418.8 K, Crystal 1, DSC	174.6
420 K, Crystal 1, DSC	174.52
420.8 K, Crystal 1, DSC	174.6
422.8 K, Crystal 1, DSC	174.6
424.8 K, Crystal 1, DSC	174.6
426.8 K, Crystal 1, DSC	174.6
428.8 K, Crystal 1, DSC	174.6
430 K, Crystal 1, DSC	174.27
430.8 K, Crystal 1, DSC	174.6
432.8 K, Crystal 1, DSC	174.6
434.8 K, Crystal 1, DSC	174.6
436.8 K, Crystal 1, DSC	174.6
438.8 K, Crystal 1, DSC	174.6
440 K, Crystal 1, DSC	174.27
440.8 K, Crystal 1, DSC	173.77
442.8 K, Crystal 1, DSC	174.6
444.8 K, Crystal 1, DSC	174.6
446.8 K, Crystal 1, DSC	174.6
448.8 K, Crystal 1, DSC	173.77
450 K, Crystal 1, DSC	174.44
450.8 K, Crystal 1, DSC	173.77
452.8 K, Crystal 1, DSC	173.77
454.8 K, Crystal 1, DSC	174.6
456.8 K, Crystal 1, DSC	173.77
458.8 K, Crystal 1, DSC	174.6
460 K, Crystal 1, DSC	174.77
460.8 K, Crystal 1, DSC	174.6
462.8 K, Crystal 1, DSC	174.6
464.8 K, Crystal 1, DSC	174.6
466.8 K, Crystal 1, DSC	174.6
468.8 K, Crystal 1, DSC	175.44
470 K, Crystal 1, DSC	175.19
470.8 K, Crystal 1, DSC	175.44
472.8 K, Crystal 1, DSC	175.44
474.8 K, Crystal 1, DSC	175.44
476.8 K, Crystal 1, DSC	176.27
478.8 K, Crystal 1, DSC	176.27
480 K, Crystal 1, DSC	175.68
480.8 K, Crystal 1, DSC	176.27
482.8 K, Crystal 1, DSC	176.27
484.8 K, Crystal 1, DSC	176.27
486.8 K, Crystal 1, DSC	176.27
488.8 K, Crystal 1, DSC	176.27
490 K, Crystal 1, DSC	176.18
490.8 K, Crystal 1, DSC	177.1
492.8 K, Crystal 1, DSC	177.1
494.8 K, Crystal 1, DSC	177.1
496.8 K, Crystal 1, DSC	177.1
498.8 K, Crystal 1, DSC	177.1
500 K, Crystal 1, DSC	176.77
500.8 K, Crystal 1, DSC	177.1
502.8 K, Crystal 1, DSC	177.1
504.8 K, Crystal 1, DSC	177.1
506.8 K, Crystal 1, DSC	177.1
508.8 K, Crystal 1, DSC	177.1
510 K, Crystal 1, DSC	177.26
510.8 K, Crystal 1, DSC	177.1
512.8 K, Crystal 1, DSC	177.1
514.8 K, Crystal 1, DSC	177.1
516.8 K, Crystal 1, DSC	177.1
518.8 K, Crystal 1, DSC	177.1
520 K, Crystal 1, DSC	177.76
520.8 K, Crystal 1, DSC	177.93
522.8 K, Crystal 1, DSC	177.93
524.8 K, Crystal 1, DSC	177.93
526.8 K, Crystal 1, DSC	177.93
528.8 K, Crystal 1, DSC	177.93
530 K, Crystal 1, DSC	178.26
530.8 K, Crystal 1, DSC	177.93
532.8 K, Crystal 1, DSC	177.93
534.8 K, Crystal 1, DSC	177.93
536.8 K, Crystal 1, DSC	177.93
538.8 K, Crystal 1, DSC	178.76
540 K, Crystal 1, DSC	178.76
540.8 K, Crystal 1, DSC	178.76
542.8 K, Crystal 1, DSC	178.76
544.8 K, Crystal 1, DSC	178.76
546.8 K, Crystal 1, DSC	178.76
548.8 K, Crystal 1, DSC	178.76
550 K, Crystal 1, DSC	179.18
550.8 K, Crystal 1, DSC	178.76
552.8 K, Crystal 1, DSC	178.76
554.8 K, Crystal 1, DSC	179.59
556.8 K, Crystal 1, DSC	179.59
558.8 K, Crystal 1, DSC	179.59
560 K, Crystal 1, DSC	179.59
560.8 K, Crystal 1, DSC	179.59
562.8 K, Crystal 1, DSC	179.59
564.8 K, Crystal 1, DSC	179.59
566.8 K, Crystal 1, DSC	180.42
568.8 K, Crystal 1, DSC	180.42
570 K, Crystal 1, DSC	180.01
570.8 K, Crystal 1, DSC	180.42
572.8 K, Crystal 1, DSC	180.42
574.8 K, Crystal 1, DSC	180.42
576.8 K, Crystal 1, DSC	180.42
578.8 K, Crystal 1, DSC	180.42
580 K, Crystal 1, DSC	180.34
580.8 K, Crystal 1, DSC	180.42
582.8 K, Crystal 1, DSC	180.42
584.8 K, Crystal 1, DSC	180.42
586.8 K, Crystal 1, DSC	180.42
588.8 K, Crystal 1, DSC	180.42
590 K, Crystal 1, DSC	180.76
590.8 K, Crystal 1, DSC	181.26
592.8 K, Crystal 1, DSC	181.26
594.8 K, Crystal 1, DSC	181.26
596.8 K, Crystal 1, DSC	181.26
598.8 K, Crystal 1, DSC	181.26
600 K, Crystal 1, DSC	181.26
600.8 K, Crystal 1, DSC	181.26
602.8 K, Crystal 1, DSC	181.26
604.8 K, Crystal 1, DSC	181.26
606.8 K, Crystal 1, DSC	181.26
608.8 K, Crystal 1, DSC	182.09
610 K, Crystal 1, DSC	181.84
610.8 K, Crystal 1, DSC	182.09
612.8 K, Crystal 1, DSC	182.09
614.8 K, Crystal 1, DSC	182.09
616.8 K, Crystal 1, DSC	182.09
618.8 K, Crystal 1, DSC	182.09
620 K, Crystal 1, DSC	182.5
620.8 K, Crystal 1, DSC	182.09
622.8 K, Crystal 1, DSC	182.92
624.8 K, Crystal 1, DSC	182.92
626.8 K, Crystal 1, DSC	182.92
628.8 K, Crystal 1, DSC	182.92
630 K, Crystal 1, DSC	183.25
630.8 K, Crystal 1, DSC	182.92
632.8 K, Crystal 1, DSC	183.75
634.8 K, Crystal 1, DSC	183.75
636.8 K, Crystal 1, DSC	183.75
638.8 K, Crystal 1, DSC	184.58
640 K, Crystal 1, DSC	184.33
640.8 K, Crystal 1, DSC	184.58
642.8 K, Crystal 1, DSC	184.58
644.8 K, Crystal 1, DSC	184.58
646.8 K, Crystal 1, DSC	185.41
648.8 K, Crystal 1, DSC	185.41
650 K, Crystal 1, DSC	185.58
